{
  "source": "patent US8609432B2",
  "about": "“Method and kit for detection of autoimmune chronic urticaria” (priority 2005, dated 2013)",
  "key": {"[1]": {"tested_on": "basophils, CD203c expression", "conditions": "cited from earlier work"}, "[2]": {"tested_on": "basophils, CD63 expression", "conditions": "cited from earlier work"}, "[3]": {"tested_on": "basophils (CD203c/IgE positive cells) in donor whole blood", "assay": "Measurement of CD203c surface expression on donor basophils by flow cytometry", "format": "cell-based, human", "conditions": "positive controls, donor heparinized whole blood incubated 10 minutes at 37° C.; above buffer baseline; mean ±SEM, n=4", "description": "Whole blood from seven normal individuals was screened and one donor was identified based on the marked upregulation of CD203c on basophils (CD203c/IgE positive cells) in response to fMLP and anti-FcεRIα antibody.\nThe test was carried out on heparinized blood within 3-4 hours after drawing the donor's blood. Two hundred μL aliquots of the donor's heparinized whole blood were incubated for 10 minutes at 37° C. with 40 μL of sera from CU patients, normal controls, or IgG depleted sera. For controls, 40 μL basophil stimulation buffer (20 mM HEPES, 125 mM NaCl, 5 mM KCl, 2.5 mM CaCl2, 1 mM MgCl2, 0.5 mM glucose, and 0.1% BSA, pH 7.4) was added to 200 μL of donor's blood and used as the negative control while 40 μL of […] f-Met-Leu-Phe (fMLP, Sigma, St. Louis, Mo.) and 40 μL of a 1:50 dilution of anti-FcεRIα receptor antibody (Upstate, Charlottesville, Va.) in Ca++ and Mg++ free phosphate buffered saline (PBS) were used as positive controls. […] The cells were then analyzed on a FACSCalibur flow cytometer (Becton Dickinson, San Jose, Calif.).\nBasophils from whole blood were identified by the presence of CD203c on high expressing IgE positive cells (FIGS. 1A and 1B). The data are expressed as the mean fluorescence intensity or the percentage of CD203c expression. […] This was determined by defining an M1 region on the histogram analysis (FIG. 1C)."}},
  "data": [
    {"compound": "CCCCC[C@H](O)/C=C/[C@H]1C(=O)C[C@H](O)[C@@H]1C/C=C\\CCCC(=O)O", "note": "[PGD2]", "values": [
      {"measurement": "induction of CD203c expression", "setting": "[1]", "value": "strong inducer"},
      {"measurement": "stimulation of CD63 expression", "setting": "[2]", "value": "does not stimulate"}
    ]},
    {"compound": "f-Met-Leu-Phe [fMLP]", "values": [
      {"measurement": "mean percent basophil CD203c expression", "setting": "[3]", "value": "34.5%±14.6"}
    ]}
  ]
}
